Results: ChEMBL document CHEMBL1147637, “Synthesis and biological activity of selective azasugar-based TACE inhibitors” (Bioorg Med Chem Lett, 2004)

Key:
[1] = molecular target: Matrix metalloproteinase-9 (Homo sapiens, UniProt P14780); test: Inhibition of recombinant human matrix metalloprotease-9
[2] = molecular target: Disintegrin and metalloproteinase domain-containing protein 17 (Homo sapiens, UniProt P78536); test: Inhibition of recombinant human TNF-alpha converting enzyme
Stromelysin-1 = Stromelysin-1 (Homo sapiens, UniProt P08254); test: Inhibition of recombinant human matrix metalloprotease-3
Interstitial collagenase = molecular target: T1, Interstitial collagenase (Homo sapiens, UniProt P03956); test: Inhibition of recombinant human matrix metalloprotease-1
T1 sequence (P03956 whole entry): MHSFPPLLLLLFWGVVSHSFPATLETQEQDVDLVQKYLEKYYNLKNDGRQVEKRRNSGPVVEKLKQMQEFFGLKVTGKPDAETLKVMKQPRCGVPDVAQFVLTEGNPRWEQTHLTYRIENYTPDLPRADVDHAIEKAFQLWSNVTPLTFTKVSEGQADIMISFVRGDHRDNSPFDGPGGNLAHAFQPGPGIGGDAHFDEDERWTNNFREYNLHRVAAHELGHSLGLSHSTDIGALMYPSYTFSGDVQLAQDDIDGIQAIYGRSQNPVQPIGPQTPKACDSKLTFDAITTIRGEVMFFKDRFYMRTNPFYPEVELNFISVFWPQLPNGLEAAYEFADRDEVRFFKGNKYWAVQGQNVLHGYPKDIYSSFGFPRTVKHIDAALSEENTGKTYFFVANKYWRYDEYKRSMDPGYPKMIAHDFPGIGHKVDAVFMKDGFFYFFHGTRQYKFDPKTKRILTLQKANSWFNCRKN

Stromelysin-1, sequence (P08254 whole entry): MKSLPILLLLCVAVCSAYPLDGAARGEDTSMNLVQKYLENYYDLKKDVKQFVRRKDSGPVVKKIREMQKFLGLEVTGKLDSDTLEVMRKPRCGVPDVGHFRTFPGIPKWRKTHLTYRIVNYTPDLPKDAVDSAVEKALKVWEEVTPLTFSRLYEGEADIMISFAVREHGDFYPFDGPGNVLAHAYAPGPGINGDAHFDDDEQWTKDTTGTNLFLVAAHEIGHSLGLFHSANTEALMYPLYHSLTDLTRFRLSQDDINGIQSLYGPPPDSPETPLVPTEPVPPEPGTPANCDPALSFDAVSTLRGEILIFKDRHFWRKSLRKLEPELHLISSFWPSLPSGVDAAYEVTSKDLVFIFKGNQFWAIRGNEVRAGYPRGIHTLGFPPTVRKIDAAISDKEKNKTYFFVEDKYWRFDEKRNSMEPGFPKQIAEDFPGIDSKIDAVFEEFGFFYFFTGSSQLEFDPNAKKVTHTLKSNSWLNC
Matrix metalloproteinase-9, sequence (P14780 whole entry, the tested form may be a part): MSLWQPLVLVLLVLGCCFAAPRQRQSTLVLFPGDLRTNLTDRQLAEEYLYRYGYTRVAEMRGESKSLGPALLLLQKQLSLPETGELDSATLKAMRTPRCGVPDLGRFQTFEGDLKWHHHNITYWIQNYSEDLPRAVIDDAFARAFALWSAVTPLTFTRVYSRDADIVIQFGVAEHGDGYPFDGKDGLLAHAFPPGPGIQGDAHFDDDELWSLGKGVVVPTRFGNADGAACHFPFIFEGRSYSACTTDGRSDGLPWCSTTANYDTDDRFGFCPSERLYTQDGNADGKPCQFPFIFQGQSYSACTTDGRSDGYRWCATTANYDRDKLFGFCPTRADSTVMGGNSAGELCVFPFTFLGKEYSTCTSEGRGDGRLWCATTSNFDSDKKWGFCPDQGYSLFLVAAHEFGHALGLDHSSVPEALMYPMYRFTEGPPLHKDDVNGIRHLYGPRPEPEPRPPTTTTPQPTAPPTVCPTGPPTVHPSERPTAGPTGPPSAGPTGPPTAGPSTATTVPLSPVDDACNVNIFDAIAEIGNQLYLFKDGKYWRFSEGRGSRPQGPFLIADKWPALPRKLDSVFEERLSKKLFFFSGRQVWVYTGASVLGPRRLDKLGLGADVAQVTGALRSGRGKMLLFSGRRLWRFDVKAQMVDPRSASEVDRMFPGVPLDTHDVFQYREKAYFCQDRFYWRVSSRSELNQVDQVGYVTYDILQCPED
Disintegrin and metalloproteinase domain-containing protein 17, sequence (P78536 whole entry, the tested form may be a part): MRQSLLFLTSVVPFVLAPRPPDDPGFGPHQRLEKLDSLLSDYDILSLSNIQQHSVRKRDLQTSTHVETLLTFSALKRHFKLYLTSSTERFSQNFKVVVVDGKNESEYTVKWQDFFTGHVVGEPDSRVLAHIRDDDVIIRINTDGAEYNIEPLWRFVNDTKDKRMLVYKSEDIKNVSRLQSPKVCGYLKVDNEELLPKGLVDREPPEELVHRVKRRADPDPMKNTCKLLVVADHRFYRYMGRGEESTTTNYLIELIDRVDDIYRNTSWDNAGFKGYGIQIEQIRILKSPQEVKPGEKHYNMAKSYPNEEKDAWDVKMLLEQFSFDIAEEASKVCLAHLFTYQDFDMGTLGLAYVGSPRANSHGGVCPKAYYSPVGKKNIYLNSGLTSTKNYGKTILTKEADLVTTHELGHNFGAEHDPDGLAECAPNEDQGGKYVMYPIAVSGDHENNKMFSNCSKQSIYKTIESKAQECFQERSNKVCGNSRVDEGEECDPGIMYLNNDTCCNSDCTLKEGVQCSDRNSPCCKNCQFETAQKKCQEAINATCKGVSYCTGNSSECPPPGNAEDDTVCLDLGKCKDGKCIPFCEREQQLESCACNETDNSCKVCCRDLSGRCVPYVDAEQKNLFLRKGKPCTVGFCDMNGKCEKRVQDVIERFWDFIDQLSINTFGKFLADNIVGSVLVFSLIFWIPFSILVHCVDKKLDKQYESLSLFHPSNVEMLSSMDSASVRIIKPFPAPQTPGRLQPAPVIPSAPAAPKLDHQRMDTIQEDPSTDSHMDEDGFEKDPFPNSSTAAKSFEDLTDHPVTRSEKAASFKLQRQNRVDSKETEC

Ki [1] [nM]	Ki [2] [nM]	Ki (Stromelysin-1) [nM]	Ki (Interstitial collagenase) [nM]	Compound
12	1.85	0.43	90	CC#CCOc1ccc(S(=O)(=O)N2C[C@@H](O)[C@@H](O)[C@H](OC)[C@@H]2C(=O)NO)cc1
98.2	0.84	11.5	552	CC#CCOc1ccc(S(=O)(=O)N2C[C@H]3OC(C)(C)O[C@H]3[C@H](OC)[C@@H]2C(=O)NO)cc1
14.2	–	3.3	128	CC#CCOc1ccc(S(=O)(=O)N2C[C@@H](O)[C@@H](O)[C@H](O)[C@@H]2C(=O)NO)cc1

Further lines, the compound ahead of its results:

Compound	Ki [1] [nM]	Ki [2] [nM]	Ki (Stromelysin-1) [nM]	Ki (Interstitial collagenase) [nM]
CC#CCOc1ccc(S(=O)(=O)N2C[C@H]3OC(C)(C)O[C@H]3[C@H](O)[C@@H]2C(=O)NO)cc1	77.8	0.57	29.6	> 850
CC#CCOc1ccc(S(=O)(=O)N2C[C@@H](O)[C@H]3OC(C)(C)O[C@@H]3[C@@H]2C(=O)NO)cc1	118	1.85	58.1	> 850
